{"source": "PubChem BioAssay AID2839", "about": "(Southern Research Specialized Biocontainment Screening …, 2010)", "note": "Calls of active or inactive are those of the source. No rule for the calls is given here."}
{"system": "not listed separately", "test": "PhoP promoter GFP reporter reduction in Typhi – purified and synthesized compounds, set 2, PhoP regulon inhibitor project, dose response (AID 2839)", "conditions": "Salmonella Typhi PhoP-promoter GFP reporter, low Mg2+, 4 h; at 150 µM (top of the series)"}
{"smiles": "S=C(NCc1ccc(Cl)cc1)Nc1cccc(Cl)c1", "inhibition": "29.4% (inactive)"}
{"smiles": "O=C(NCc1ccccc1)N1CCCN(Cc2ccccc2F)C1", "inhibition": "6.93% (inactive)"}
{"smiles": "O=C(Nc1ccccc1Cl)N1CCCN(Cc2ccccc2F)C1", "inhibition": "16.8% (inactive)"}
{"smiles": "CCn1cc(C(=O)O)c(=O)c2cc(F)c(N3CCN(C(=S)NC)CC3)cc21", "inhibition": "4.25% (inactive)"}
{"smiles": "COc1cccc(NC(=S)NCc2ccc(Cl)cc2)c1", "inhibition": "-3.63% (inactive)"}
{"smiles": "Fc1ccccc1NC(=S)NCc1ccc(Cl)cc1", "inhibition": "-0.65% (inactive)"}
{"smiles": "S=C(NCc1ccc(Cl)cc1)Nc1ccc(Br)cc1", "inhibition": "6.57% (inactive)"}
{"smiles": "Cc1ccc(NC(=S)NCc2ccc(Cl)cc2)cc1", "inhibition": "13.6% (inactive)"}
{"smiles": "O=C1C2=C(Nc3ccccc3SC2c2ccccc2C(F)(F)F)c2ccccc21", "note": "(stereo not drawn)", "inhibition": "7.29% (inactive)"}
{"smiles": "S=C(NCc1ccc(Cl)cc1)Nc1ccc(Cl)cc1", "inhibition": "22.4% (inactive)"}
{"smiles": "COc1ccc(NC(=S)NCc2ccc(Cl)cc2)cc1", "inhibition": "8.24% (inactive)"}
{"smiles": "S=C(NCc1ccc(Cl)cc1)Nc1cccnc1", "inhibition": "-36.6% (inactive)"}
{"smiles": "Cc1cccc(NC(=S)NCc2ccc(Cl)cc2)c1", "inhibition": "16.8% (inactive)"}
{"smiles": "CCn1cc(C(=O)O)c(=O)c2cc(F)c(N3CCN(C(=S)NCc4ccccc4)CC3)cc21", "inhibition": "9.85% (inactive)"}
{"smiles": "O=C(Nc1ccccc1)N1CCCN(Cc2ccccc2F)C1", "inhibition": "28.7% (inactive)"}
{"system": "Salmonella Typhi PhoP-promoter GFP reporter, low Mg2+, 4 h", "test": "PhoP promoter GFP reporter reduction in Typhi – purified and synthesized compounds, set 2, PhoP regulon inhibitor project, dose response (AID 2839)", "conditions": "not given", "units": {"IC50": "µM"}}
{"smiles": "CCCCn1c(NS(=O)(=O)c2ccc(C)cc2)c(S(=O)(=O)c2ccccc2)c2nc3ccccc3nc21", "IC50": "< 0.15"}
{"smiles": "O=C(Nc1ccc(Br)cc1)N1CCCN(Cc2ccccc2F)C1", "IC50": 61.6}
{"smiles": "Cc1ccc(CN2CCCN(C(=O)Nc3ccc(Cl)cc3)C2)cc1", "IC50": 46.2}
{"smiles": "O=C(Nc1cccnc1)c1cc(Br)c(Br)s1", "IC50": "< 0.15"}
{"smiles": "CCn1cc(C(=O)O)c(=O)c2cc(F)c(N3CCN(C(=S)NC(=O)c4ccccc4F)CC3)cc21", "IC50": 95.9}
{"smiles": "N#C/C(=C\\c1ccc[nH]1)C(=O)NC1CC1", "IC50": 60.4}
{"smiles": "CN1CCN(C2=Cc3cc(Cl)ccc3Sc3cc(F)ccc32)CC1", "IC50": 53.7}
{"smiles": "CCn1cc(C(=O)O)c(=O)c2cc(F)c(N3CCN(C(=S)Nc4ccc(Cl)cc4)CC3)cc21", "IC50": 60.8}
{"smiles": "O=C(Nc1ccc(Cl)cc1)N1CCCN(Cc2ccccc2F)C1", "IC50": 31.3}
{"smiles": "CCn1cc(C(=O)O)c(=O)c2cc(F)c(N3CCN(C(=S)NC(=O)c4ccccc4Cl)CC3)cc21", "IC50": 20.5}
{"smiles": "O=C1C2=C(Nc3ccccc3SC2c2ccc(I)cc2)c2ccccc21", "note": "(stereo not drawn)", "IC50": 3.67}
{"smiles": "COc1ccccc1Nc1nc(NCc2ccco2)c2ccccc2n1", "IC50": "< 0.15"}
{"smiles": "CN(C)CCCN(C(=O)CCc1ccccc1)c1nc2ccc(Cl)cc2s1", "IC50": "< 0.15"}
{"smiles": "CCCCn1c(NS(=O)(=O)c2ccccc2)c(S(=O)(=O)c2ccc(C)cc2)c2nc3ccccc3nc21", "IC50": "< 0.15"}
{"smiles": "O=[N+]([O-])c1ccc(CNC2CCCc3ccccc32)cc1", "note": "(stereo not drawn)", "IC50": 16.6}
{"smiles": "COc1ccc(NC(=O)c2cc(Br)c(Br)s2)cn1", "IC50": "< 0.15"}
{"smiles": "CCn1cc(C(=O)O)c(=O)c2cc(F)c(N3CCN(C(=S)Nc4ccccc4C(F)(F)F)CC3)cc21", "IC50": 24.1}
{"smiles": "O=C(O)c1cn(-c2ccc(F)cc2)c2cc(Cl)c(F)cc2c1=O", "IC50": "< 0.15"}
{"smiles": "CN1CCc2nc(SCC(=O)Nc3cccc(F)c3)c(C#N)c(-c3cccs3)c2C1", "IC50": 0.05}
{"smiles": "S=C(NCc1ccc(Cl)cc1)Nc1ccncc1", "IC50": 15.9}
{"smiles": "CCCCCNC(=O)c1cn(CC)c2cc(N3CCN(C)CC3)c(F)cc2c1=O", "IC50": "< 0.15"}
{"smiles": "COc1ccc(CNC(=S)Nc2ccncc2)cc1", "IC50": 48.1}
{"smiles": "O=C1C2=C(Nc3ccccc3SC2c2ccc(C(F)(F)F)cc2)c2ccccc21", "note": "(stereo not drawn)", "IC50": "< 2.35"}
{"smiles": "Cc1ccc(Nc2cc(C)c3c(O)cccc3n2)cc1C", "IC50": 9.67}
{"smiles": "O=C1C2=C(Nc3ccccc3SC2c2ccco2)c2ccccc21", "note": "(stereo not drawn)", "IC50": 16.8}
{"smiles": "COc1c(N2CCN(C(=S)NCc3ccccc3)C(C)C2)c(F)cc2c(=O)c(C(=O)O)cn(C3CC3)c12", "note": "(stereo not drawn)", "IC50": 79.1}
{"smiles": "CCOc1ccc(NC(=S)N2CCN(c3cc4c(cc3F)c(=O)c(C(=O)O)cn4CC)CC2)cc1", "IC50": 47.6}
{"smiles": "O=S(=O)(Nc1c(S(=O)(=O)c2ccccc2)c2nc3ccccc3nc2n1C1CCCCC1)c1ccccc1", "IC50": "< 0.15"}
{"smiles": "S=C(NCc1ccccc1Cl)Nc1ccncc1", "IC50": 131}
{"smiles": "O=C(Nc1nnc(-c2cccs2)o1)c1cccc(C(F)(F)F)c1", "IC50": 80.1}
{"smiles": "C1=C(CCNc2ncnc3c2[nH]c2ccccc23)CCCC1", "IC50": 106}
{"smiles": "COc1ccccc1NC(=O)N1CCCN(Cc2ccccc2F)C1", "IC50": 136}
{"smiles": "O=C1C2=C(Nc3ccccc3SC2c2ccsc2)c2ccccc21", "note": "(stereo not drawn)", "IC50": 34.5}
{"smiles": "O=C(Nc1ccccc1)N1CCCN(Cc2ccc(F)cc2)C1", "IC50": 72.2}
{"smiles": "O=C(Nc1ccc(Cl)cc1)N1CCCN(Cc2ccc(F)cc2)C1", "IC50": 61.4}
{"smiles": "O=c1c2ccccc2[nH]c2ccc(F)cc12", "IC50": "< 0.15"}
{"smiles": "COc1cccc(C2Sc3ccccc3NC3=C2C(=O)c2ccccc23)c1", "note": "(stereo not drawn)", "IC50": 33.4}
{"smiles": "O=C1c2ccccc2C2=Nc3ccccc3SC(c3ccccc3F)C12", "note": "(stereo not drawn)", "IC50": "< 0.15"}
